Data set [1] deals with T1, NPC2 (Saccharomyces cerevisiae, UniProt Q12408).
T1 construct: residues 1–173, UniProt: Q12408; thrombin cleavage site (C); deca-histidine tag (C, cleaved yes); made in house; host or cells: Saccharomyces cerevisiae strain DSY-5
T1 sequence (Q12408 22-173): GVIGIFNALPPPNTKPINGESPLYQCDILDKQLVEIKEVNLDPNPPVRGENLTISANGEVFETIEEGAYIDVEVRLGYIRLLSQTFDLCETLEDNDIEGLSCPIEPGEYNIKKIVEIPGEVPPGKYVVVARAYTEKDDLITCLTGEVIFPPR
As to the kind of experiment: In vitro liposome crosslinking assay of pac-lipids with NPC2. It counts as binding. The protocol:
To compare with the interaction profile of the NTD, crosslinking assays were also performed with purified, delipidated NPC2 (Fig S4A and B). […] NPC2 crosslinks well with all tested pac-lipids but, as for the NTD, most strongly with pacChol (+UV/−UV ratio = 1.91). Robust and consistent crosslinking with pacSph (+UV/−UV ratio = 1.64), pacCer (+UV/−UV = 1.67), and pacPC (+UV/−UV = 1.63) were observed. The crosslinking efficiency for cholesterol and sphingosine analogs was higher for the NTD, whereas crosslinking with ceramide and PC analogs seemed stronger with NPC2.
Lipids from stock vials were dissolved in chloroform and mixed at the desired molar ratio. For in vitro crosslinking, most liposomes consisted of 88.5 mol% DOPC as carrier lipid, 10 mol% DOPS, and 1.5 mol% respective pac-lipid. The pac-lipids were incorporated into liposomes at low concentrations (1.5 mol%) to ensure homogenous distribution and avoid micelle formation. The solvent was evaporated in a rotary evaporator (Hei-VAP Core, Heidolph) for 30 min at 42°C at 150 rpm to create a thin lipid film. Lipid films were hydrated with filtered and degassed PBS (137 mM NaCl, 2.7 mM KCl, 10 mM Na2HPO4, 1.8 mM KH2PO4, pH 7.4). Solutions of hydrated lipids (with a total lipid concentration of 2 mM) were subjected to five freeze–thaw cycles in liquid nitrogen and warm water (42°C) to facilitate breakup of large structures and support formation of smaller multilamellar vesicles. Lipid solutions were stored at −20°C. Before use, liposomes were extruded by passing 20x through a 100-nm pore size polycarbonate filter (Nuclepore; Whatman) using a hand extruder (Avanti Polar Lipids). Extruded liposomes were stored at 4°C, protected from light, and used within 1–2 d.
Extruded liposomes were diluted in PBS until a final lipid concentration of 60 μM, including 1 μM pac-lipid. Purified proteins were added until a final concentration of 1.5 μM in a reaction volume of 100 μl. Protein–liposome mixtures were incubated in 0.5-ml Eppendorf tubes for 30 min at 37°C at 400 rpm (Comfort thermomixer, Eppendorf), then crosslinked (or not) by exposure to 365-nm UV light for 15 min at 4°C using a 100-W mercury lamp (Blak-Ray B-100AP). After crosslinking, the click reaction was performed by adding 0.7 μl of freshly prepared click mix into the sample tubes. The final concentrations of click reagents in sample tubes were 80 μM CuSO4 (Merck), 3 μM TBTA (Merck), 3 μM AF647-picolyl azide (Jena Bioscience), and 80 μM ascorbic acid (Merck). Fresh stock of ascorbic acid solution in water was prepared every time and added to the click mix immediately before starting the click reaction. Click reactions were allowed to proceed for 2 h at 37°C at 400 rpm with the thermomixer. Then, samples were concentrated in a vacuum evaporator for 30 min set to 30°C and supplemented with 4x Lämmli buffer (250 mM Tris, pH 6.8, 9.2% SDS, 40% glycerol, 0.2% bromophenol blue, 100 mM DTT). Samples were boiled for 5 min at 95°C, and clicked protein–lipid complexes were resolved by SDS–PAGE. After extensive destaining in a destain solution (65% water, 25% isopropanol, and 10% acetic acid), the AF647 (a structural analog of Alexa Fluor 647) and Coomassie images were acquired using the LI-COR Odyssey imaging system. Data were evaluated by subtracting background fluorescence, followed by comparing the AF647 signal between crosslinked and non-crosslinked samples, normalized to protein loading based on Coomassie staining. The resulting values are described as +UV/−UV ratios. Statistics were calculated with the Mann–Whitney U test.

Details of data set [2]: method as in PMID 19348755. To be noted: aggregated form; cited from earlier work.
Data set [3] deals with T2, NTD of NCR1 (Saccharomyces cerevisiae, UniProt Q12200).
T2 construct: residues 1–249, UniProt: Q12200; thrombin cleavage site (C); deca-histidine tag (C, cleaved yes); made in house; host or cells: Saccharomyces cerevisiae strain DSY-5
Briefly: In vitro liposome crosslinking assay of pac-lipids with the NTD. It counts as binding. The note with it: liposomes with 1.5 mol% pac-lipid (1 μM), 1.5 μM NTD, average ratio. The text has this:
In a parallel approach, the substrate scope of the NTD and NPC2 was probed with photo-activatable and clickable (pac) lipids. Pac-lipids contain small chemical modifications for click chemistry reactions, with fluorophores such as AF647 (a structural analog of Alexa Fluor 647), and for UV-activated photo-crosslinking, respectively ([45]). In contrast to NBD-tagged lipids delivered in solution, pac-lipids such as pac-cholesterol (pacChol), pac-phosphatidylcholine (pacPC), pac-sphingosine (pacSph), and pac-ceramide (pacCer) were reconstituted in liposomal membranes (Fig 5A and B). As expected, the delipidated NTD crosslinks with pacChol (average +UV/−UV ratio = 2.11). Crosslinking of the NTD with pacSph (+UV/−UV = 1.73) and, to a lesser extent, with pacCer and pacPC (+UV/−UV = 1.40 and 1.12), respectively, was also detected (Fig 5C and D).
Lipids from stock vials were dissolved in chloroform and mixed at the desired molar ratio. […]
Extruded liposomes were diluted in PBS until a final lipid concentration of 60 μM, including 1 μM pac-lipid. […] Data were evaluated by subtracting background fluorescence, followed by comparing the AF647 signal between crosslinked and non-crosslinked samples, normalized to protein loading based on Coomassie staining. […] Statistics were calculated with the Mann–Whitney U test.

In data set [4] the target is T2, NTD of NCR1. Briefly: Competitive binding assays of edelfosine and NBD-Sph to the NTD. The note with it: 1 μM NBD-Sph, pH 7.5, read-out: apparent KD of NBD-Sph to the NTD. The text has this: Edelfosine is a synthetic lysophospholipid with cytotoxic antifungal effects. […] To investigate this, two competitive binding assays with edelfosine and NBD-Sph were designed (Fig 4). For the first assay, the NTD was saturated by NBD-Sph and the addition of edelfosine led to the exchange of the NTD-bound substrate, causing a drop in NBD-Sph fluorescence by about 50% (Fig 4A). […] To further evaluate the capability of NBD-Sph to participate in micelle formation, each emission spectrum was normalized with varying concentrations of edelfosine (Fig 4B). […] The shift in the wavelength of the emission peaks indicates a change in the environment of the fluorophore ([48], [49], [50]), likely indicating the transition of NBD-Sph from being free in solution to being incorporated into mixed micelles with edelfosine. Initially, emission peaks at ∼530 nm are observed, assigned to be NTD and NBD-Sph complexes (Fig 4C). […] Similarly, for binding of substrates at higher concentrations than their CMC, this binding assay is rather complex because of edelfosine exceeding its CMC. […] Because of these restrictions, the inhibitory constant for edelfosine is referred to as apparent, rather than a real, inhibitor constant (KI).
Based on the above observations, fixed amounts of edelfosine were added to NBD-Sph before titrating with the NTD in the second assay (Fig 4D).
For measuring the ability of edelfosine to outcompete NBD-Sph, 1 μM NBD-Sph and 1 μM NTD were mixed to form the interaction complex before adding increasing amounts of edelfosine. As a control, edelfosine was titrated into a cuvette containing exclusively NBD-Sph in buffer. To measure the competitive binding between NBD-Sph and edelfosine, 1 μM NBD-lipid in Tris buffer was mixed with either 0.1, 0.5, or 0.7 μM edelfosine in the sample cuvette before titration with the NTD.
Before determination of dissociation constants, the measurements were normalized. The protein–lipid binding measurements were normalized to the highest intensity in each dataset. For the competition assay, the data were normalized to the lowest intensity in the dataset to be able to fit all data to Equation (1), the full model for one-site binding for the saturated fraction, f ([27]):(1) RL/Rt=Rt+KD+Lt-Rt+KD+Lt^2-4⋅Rt⋅Lt/2⋅Rt=f
To determine the dissociation constant of edelfosine (referred to as KI) in the competition assay, it can be assumed that the binding is simple and that all added ligand is bound. In this case, the IC50 can be used to calculate a KI using Equation (2) on normalized data:(2) KI=IC50⋅KD/KD+L
The KD is the dissociation constant of the ligand, [L] is the concentration, and IC50 is the concentration of the inhibitor, where half of the ligand is inhibited.

Data set [5] addresses T2, NTD of NCR1. As to the kind of experiment: Fluorescence binding assay of NBD-lipids titrated with the NTD. The procedure:
(§1) To investigate substrate candidates for the NTD of NCR1 and NPC2, biochemical assays were conducted with purified protein and fluorescent lipid analogs. The purified, delipidated NTD was titrated into NBD-tagged phospholipids and sphingolipids, in which the fluorophore is attached to the hydrophobic tail of the lipid molecules. An increase in signal is based on an enhanced molecular brightness of the NBD-moiety upon binding in a more hydrophobic environment ([28]). This increase in fluorescence correlates with the concentration of the NTD (Fig 3A), which can be used to infer the affinity of the NTD to a given NBD-lipid (Fig 3B–G). […] The measured increase in fluorescence of each NBD-lipid upon titrating the protein was used to determine an apparent dissociation constant (KD) according to a one-site binding model (Equation (1)).
(§2) Fluorescence binding assays were conducted using NBD-PC, NBD-PS, NBD-Cer, and NBD-Sph (Avanti Polar Lipids), and NBD-PI (Prof. Bütikofer), dissolved in ethanol. […] NBD-lipids were excited at 460 nm, and the emission spectra were recorded within a range of 490–600 nm. […] Emission spectra for NBD-lipids were measured as a control and subtracted from the sample emission spectra. The control cuvette was measured every time the sample was measured to correct the data for bleaching of NBD-Sph. […]

The target in data set [6] is T1, NPC2. Briefly: Fluorescence binding assay of NBD-lipids titrated with NPC2. The procedure:
as §1, §2

A short description of data set [7]: CMC measurement of NBD-lipids by fluorescence. To be noted: MES buffer pH 5.5, fluorescence 460/530 nm. It counts as physicochemical. The protocol:
The CMC of NBD-Sph was measured by adding increasing concentrations of NBD-Sph to a cuvette containing MES buffer. Between measurements, the solution was mixed and incubated for 10 min. The highest measured concentration of NBD-Sph was 30 μM.
To determine the CMC, the sigmoid curve was fitted and adjusted to the normalized data: f(x)=l/1+e^−k⋅(x−x0)+b (3)
Here, l is the scaling of the y-axis, x0 represents the CMC, k determines the sharpness of the fitted curve, and b is the starting position on the y-axis.

Where [8] appears, read: 20 mol% ergosterol: 1 μM pac-lipid and 13 μM ergosterol.

“And” between values parts separate entries of the source, which are not always exact repeats. Identical values can stand only once.

T2 sequence (Q12200 20-249): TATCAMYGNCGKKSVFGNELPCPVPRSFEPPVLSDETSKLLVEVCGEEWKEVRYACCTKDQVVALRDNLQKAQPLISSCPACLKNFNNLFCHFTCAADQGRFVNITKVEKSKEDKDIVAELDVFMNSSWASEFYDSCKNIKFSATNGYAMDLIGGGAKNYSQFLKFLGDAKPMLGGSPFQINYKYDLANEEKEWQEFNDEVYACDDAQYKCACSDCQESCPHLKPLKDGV

Consider `CC(C)[C@@H](C)/C=C/[C@@H](C)[C@H]1CC[C@H]2C3=CC=C4C[C@@H](O)CC[C@]4(C)[C@H]3CC[C@]12C` [Ergosterol, ergosterol], for which the “effect of ergosterol on NPC2 crosslinking with pacChol and pacPC” value on NPC2 [1] (setting [8]) is recorded as “does not visibly influence”. In addition, the “effect of ergosterol on NPC2 crosslinking with pacSph and pacCer” value at NPC2 [1] (setting [8]) is given as “trend toward increased crosslinking”; at NPC2 [1] (20 mol% ergosterol: 1 μM pac-lipid and 13 μM ergosterol, listed as ergosterol), “increased crosslinking”.

What is called pKa is the negative logarithm of the acid dissociation constant. Turning to `CCCCCCCCCCCCC/C=C/[C@@H](O)[C@@H](N)CO` [sphingosine], the pKa in data set [2] is reported as 6.61.

In the case of `C#CCCCCOC(=O)CCC(C)C1CCC2C3CC4(N=N4)C4CC(O)CCC4(C)C3CCC12C` (stereo not drawn) [pacChol], the “+UV/−UV ratio (crosslinking with NPC2)” value at NPC2 [1] (liposomes with 1.5 mol% pac-lipid (1 μM), 1.5 μM NPC2) came out at 1.91. Moreover, the “+UV/−UV ratio (crosslinking with NTD)” value at NTD of NCR1 [3] is 2.11.

Take `NC(CO)C(O)C=CCCCCCCCCCCCCCNc1ccc([N+](=O)[O-])c2nonc12` (stereo not drawn) [NBD-Sph]: the Kd on NTD of NCR1 [4] (0.0 μM edelfosine) is 0.12 µM and ~0.12 µM; on NTD of NCR1 [4] (0.1 μM edelfosine), 0.12 ± 0.01 µM; at NTD of NCR1 [4] (0.5 μM edelfosine), 0.16 ± 0.06 µM; on NTD of NCR1 [4] (0.7 μM edelfosine), 0.21 µM and ~0.21 µM; at NTD of NCR1 [5] (pH 5.5, 1 μM NBD-lipid, values for NBD-PC, NBD-PS, NBD-Cer (marked °) are apparent KD, above CMC), ~0.25 µM and 0.25 µM; on NTD of NCR1 [5] (pH 7.5, 1 μM NBD-lipid), ~0.12 µM and 0.12 µM. The Kd at NPC2 [6] (pH 5.5, 1 μM NBD-lipid, values marked ° are apparent KD) was ~0.58 µM and 0.58 µM; on NPC2 [6] (pH 7.5, 1 μM NBD-lipid), ~0.53 µM and 0.53 µM. Moreover, the “critical micelle concentration (CMC)” value in data set [7] is approximately 13 µM.
